The results in this text go back to patent US5616684A, “Cyclic peptides and use thereof” (priority 1991, dated 1997).

Each structure is given as a SMILES string. Like-named read-outs stand apart in the source and are kept apart here.

The conditions of this data set: amide bond.

On to `CC(C)C[C@@H]1NC(=O)[C@@H](CC(C)C)NC(=O)[C@@H](CCC(=O)O)NC(=O)[C@H](C)NC(=O)[C@@H](CC(=O)O)NC(=O)[C@@H](Cc2c[nH]c3ccccc23)NC1=O` [cyclo[-D-Asp-Ala-D-Glu-D-Leu-Leu-D-Trp-]], for which the ring closure, yield of all isomers (from CC(C)C[C@H](NC(=O)[C@@H](CC(C)C)NC(=O)[C@@H](CCC(=O)OCc1ccccc1)NC(=O)[C@H](C)NC(=O)[C@@H](CC(=O)OCc1ccccc1)NC(=O)[C@@H](Cc1c[nH]c2ccccc12)NC(=O)OC(C)(C)C)C(=O)O, HONB/DCC (active ester), TEA, DMF, 4.97 mM, 16.0 h, 4 steps) was 10.8%.
For the setting “from CC(C)C[C@H](NC(=O)[C@H](NC(=O)OC(C)(C)C)C(C)(C)C)C(=O)N[C@H](Cc1c[nH]c2ccccc12)C(=O)N[C@H](CC(=O)OCc1ccccc1)C(=O)N[C@@H](Cc1c[nH]c2ccccc12)C(=O)N[C@@H](CC(=O)OCc1ccccc1)C(=O)O, HONB/DCC (active ester), then TEA, DMF, 5.03 mM, 16.0 h, 4 steps”, `CC(C)C[C@@H]1NC(=O)[C@@H](C(C)(C)C)NC(=O)[C@H](CC(=O)O)NC(=O)[C@H](Cc2c[nH]c3ccccc23)NC(=O)[C@@H](CC(=O)O)NC(=O)[C@@H](Cc2c[nH]c3ccccc23)NC1=O` [cyclo[-D-Asp-Trp-Asp-D-tLeu-Leu-D-Trp-]] showed a ring closure, yield of all isomers of 42.8%.
In turn, `CC(C)C[C@@H]1NC(=O)[C@@H](CC(C)(C)C)NC(=O)[C@H](CC(=O)O)NC(=O)[C@H](Cc2c[nH]c3ccccc23)NC(=O)[C@@H](CC(=O)O)NC(=O)[C@@H](Cc2c[nH]c3ccccc23)NC1=O` [cyclo[-D-Asp-Trp-Asp-D-γMeLeu-Leu-D-Trp-]] showed a ring closure, yield of all isomers (from CC(C)C[C@H](NC(=O)[C@@H](CC(C)(C)C)NC(=O)OC(C)(C)C)C(=O)N[C@H](Cc1c[nH]c2ccccc12)C(=O)N[C@H](CC(=O)OCc1ccccc1)C(=O)N[C@@H](Cc1c[nH]c2ccccc12)C(=O)N[C@@H](CC(=O)OCc1ccccc1)C(=O)O, HONB/DCC (active ester), then TEA, DMF, 4.97 mM, 16.0 h, 4 steps) of 51.5%.
As for `CC(C)C[C@@H]1NC(=O)[C@@H](CC(C)C)NC(=O)[C@H](CC(=O)O)NC(=O)[C@@H]2CCCN2C(=O)[C@@H](CC(=O)O)NC(=O)[C@@H](Cc2c[nH]c3ccccc23)NC1=O` [cyclo[-D-Asp-Pro-Asp-D-Leu-Leu-D-Trp-]], the ring closure, yield of all isomers (from CC(C)C[C@H](NC(=O)[C@@H](CC(C)C)NC(=O)[C@H](CC(=O)OCc1ccccc1)NC(=O)[C@@H]1CCCN1C(=O)[C@@H](CC(=O)OCc1ccccc1)NC(=O)[C@@H](Cc1c[nH]c2ccccc12)NC(=O)OC(C)(C)C)C(=O)O, HONB/DCC (ONB active ester), TEA, DMF, 5.1 mM, 16.0 h, 4 steps) was determined as 47.4%.
For `CC(C)C[C@@H]1NC(=O)[C@@H](c2cccs2)NC(=O)[C@H](CC(=O)O)NC(=O)[C@H](Cc2c[nH]c3ccccc23)NC(=O)[C@@H](CC(=O)O)NC(=O)[C@@H](Cc2c[nH]c3ccccc23)NC1=O` [cyclo[-D-Asp-Trp-Asp-D-Thg(2)-Leu-D-Trp-]], the ring closure, yield of all isomers (from CC(C)C[C@H](NC(=O)[C@H](NC(=O)OC(C)(C)C)c1cccs1)C(=O)N[C@H](Cc1c[nH]c2ccccc12)C(=O)N[C@H](CC(=O)OCc1ccccc1)C(=O)N[C@@H](Cc1c[nH]c2ccccc12)C(=O)N[C@@H](CC(=O)OCc1ccccc1)C(=O)O, HONB/DCC (active ester), TEA, DMF, 5.06 mM, 4 steps) turned out to be 4.6%.
For the compound `CC(C)C[C@@H]1NC(=O)[C@@H](CC(C)C)NC(=O)[C@H](CC(=O)O)NC(=O)[C@H](CC(=O)NCCc2ccccc2)NC(=O)[C@@H](CC(=O)O)NC(=O)[C@@H](Cc2c[nH]c3ccccc23)NC1=O` [cyclo[-D-Asp-Asn(CH2 CH2 Ph)-Asp-D-Leu-Leu-D-Trp-]], the ring closure, yield of all isomers (from CC(C)C[C@H](NC(=O)[C@@H](CC(C)C)NC(=O)[C@H](CC(=O)OCc1ccccc1)NC(=O)[C@H](CC(=O)NCCc1ccccc1)NC(=O)[C@@H](CC(=O)OCc1ccccc1)NC(=O)[C@@H](Cc1c[nH]c2ccccc12)NC(=O)OC(C)(C)C)C(=O)O, HONB/DCC (ONB active ester), then TEA, DMF, 3.46 mM, 16.0 h, 4 steps) came to 24.1%.
`CC(C)C[C@@H]1NC(=O)[C@@H](CC(C)C)NC(=O)[C@H](C)NC(=O)[C@H](CC(=O)O)NC(=O)[C@@H](CC(=O)O)NC(=O)[C@@H](Cc2c[nH]c3ccccc23)NC1=O` [cyclo[-D-Asp-Asp-Ala-D-Leu-Leu-D-Trp-]] returned a ring closure, yield of all isomers (from CC(C)C[C@H](NC(=O)[C@@H](CC(C)C)NC(=O)[C@H](C)NC(=O)[C@H](CC(=O)OCc1ccccc1)NC(=O)[C@@H](CC(=O)OCc1ccccc1)NC(=O)[C@@H](Cc1c[nH]c2ccccc12)NC(=O)OC(C)(C)C)C(=O)O, HONB/DCC (active ester), TEA, DMF, 5.04 mM, 16.0 h, 4 steps) of 17.8%.
With `CC(C)C[C@@H]1NC(=O)[C@@H](CC(C)C)NC(=O)[C@H](CC(=O)O)NC(=O)[C@H](CC(=O)NCc2ccccc2)NC(=O)[C@@H](CC(=O)O)NC(=O)[C@@H](Cc2c[nH]c3ccccc23)NC1=O` [cyclo[-D-Asp-Asn(CH2 Ph)-Asp-D-Leu-Leu-D-Trp-]], under “from CC(C)C[C@H](NC(=O)[C@@H](CC(C)C)NC(=O)[C@H](CC(=O)OCc1ccccc1)NC(=O)[C@H](CC(=O)NCc1ccccc1)NC(=O)[C@@H](CC(=O)OCc1ccccc1)NC(=O)[C@@H](Cc1c[nH]c2ccccc12)NC(=O)OC(C)(C)C)C(=O)O, HONB/DCC (ONB active ester), TEA, DMF, 3.46 mM, 16.0 h, 4 steps”, the ring closure, yield of all isomers worked out at 23.8%.
Consider `CC(C)C[C@@H]1NC(=O)[C@@H](CC(C)C)NC(=O)[C@H](CC(=O)O)NC(=O)[C@H](CC(=O)NCCc2c[nH]c3ccccc23)NC(=O)[C@@H](CC(=O)O)NC(=O)[C@@H](Cc2c[nH]c3ccccc23)NC1=O` [cyclo[-D-Asp-Asn(CH2 CH2 -Ind)-Asp-D-Leu-Leu-D-Trp-]], for which the ring closure, yield of all isomers (from CC(C)C[C@H](NC(=O)[C@@H](CC(C)C)NC(=O)[C@H](CC(=O)OCc1ccccc1)NC(=O)[C@H](CC(=O)NCCc1c[nH]c2ccccc12)NC(=O)[C@@H](CC(=O)OCc1ccccc1)NC(=O)[C@@H](Cc1c[nH]c2ccccc12)NC(=O)OC(C)(C)C)C(=O)O, 4 steps) is 19.4%.
Consider `CC(C)C[C@@H]1NC(=O)[C@@H](CC(C)C)NC(=O)[C@H](C)NC(=O)[C@H](CCC(=O)O)NC(=O)[C@@H](CC(=O)O)NC(=O)[C@@H](Cc2c[nH]c3ccccc23)NC1=O` [cyclo[-D-Asp-Glu-Ala-D-Leu-Leu-D-Trp-]], for which the ring closure, yield of all isomers (from CC(C)C[C@H](NC(=O)[C@@H](CC(C)C)NC(=O)[C@H](C)NC(=O)[C@H](CCC(=O)OCc1ccccc1)NC(=O)[C@@H](CC(=O)OCc1ccccc1)NC(=O)[C@@H](Cc1c[nH]c2ccccc12)NC(=O)OC(C)(C)C)C(=O)O, HONB/DCC (active ester), TEA, DMF, 4.97 mM, 16.0 h, 4 steps) was 20.6%.
Consider `CC(C)C[C@@H]1NC(=O)[C@@H](CC(C)C)NC(=O)[C@H](C)NC(=O)CNC(=O)[C@@H](CC(=O)O)NC(=O)[C@@H](Cc2c[nH]c3ccccc23)NC1=O` [cyclo[-D-Asp-Gly-Ala-D-Leu-Leu-D-Trp-]], for which, for the setting “from CC(C)C[C@H](NC(=O)[C@@H](CC(C)C)NC(=O)[C@H](C)NC(=O)CNC(=O)[C@@H](CC(=O)OCc1ccccc1)NC(=O)[C@@H](Cc1c[nH]c2ccccc12)NC(=O)OC(C)(C)C)C(=O)O, HONB/DCC (active ester), TEA, DMF, 5.9 mM, 16.0 h, 4 steps”, the ring closure, yield of all isomers was determined as 19.2%.
Take `CC(C)C[C@@H]1NC(=O)[C@@H](CC(C)C)NC(=O)[C@H](CC(=O)O)NC(=O)[C@H](Cc2c[nH]c3ccccc23)NC(=O)[C@@H](CC(=O)O)NC(=O)[C@@H](Cc2c[nH]c3ccccc23)NC1=O` [cyclo[-D-Asp-Trp-Asp-D-Leu-Leu-D-Trp-]]: the ring closure, yield of all isomers (from CC(C)C[C@H](NC(=O)[C@@H](CC(C)C)NC(=O)[C@H](CC(=O)OCc1ccccc1)NC(=O)[C@H](Cc1c[nH]c2ccccc12)NC(=O)[C@@H](CC(=O)OCc1ccccc1)NC(=O)[C@@H](Cc1c[nH]c2ccccc12)NC(=O)OC(C)(C)C)C(=O)O, HONB/DCC (ONB active ester), TEA, DMF, 4.97 mM, 16.0 h, 4 steps) stood at 52.9%.
For `CC(C)C[C@@H]1NC(=O)[C@@H](c2cccs2)NC(=O)[C@H](CC(=O)OCc2ccccc2)NC(=O)[C@H](CC(=O)NCCc2c[nH]c3ccccc23)NC(=O)[C@@H](CC(=O)OCc2ccccc2)NC(=O)[C@@H](Cc2c[nH]c3ccccc23)NC1=O`, the ring closure, yield of all isomers (from CC(C)C[C@H](NC(=O)[C@H](NC(=O)[C@H](CC(=O)OCc1ccccc1)NC(=O)[C@H](CC(=O)NCCc1c[nH]c2ccccc12)NC(=O)[C@@H](CC(=O)OCc1ccccc1)NC(=O)[C@@H](Cc1c[nH]c2ccccc12)NC(=O)OC(C)(C)C)c1cccs1)C(=O)O, HONB/DCC (active ester), then diisopropylethylamine, DMF, 4.75 mM, 3 steps) is 90.4%.
On to `CC(C)C[C@@H]1NC(=O)[C@@H](CC(C)C)NC(=O)[C@H](CC(=O)O)NC(=O)[C@H](C)NC(=O)[C@@H](CC(=O)O)NC(=O)[C@@H](Cc2c[nH]c3ccccc23)NC1=O` [cyclo[-D-Asp-Ala-Asp-D-Leu-Leu-D-Trp-]], for which the ring closure, yield of all isomers (from CC(C)C[C@H](NC(=O)[C@@H](CC(C)C)NC(=O)[C@H](CC(=O)OCc1ccccc1)NC(=O)[C@H](C)NC(=O)[C@@H](CC(=O)OCc1ccccc1)NC(=O)[C@@H](Cc1c[nH]c2ccccc12)NC(=O)OC(C)(C)C)C(=O)O, HONB/DCC (active ester), TEA, DMF, 5.0 mM, 4 steps) came to 18.2%.
